Results as given in patent EP0983764A1, “PREVENTIVES FOR ISCHEMIC HEART DISEASES” (TAISHO PHARMACEUTICAL CO. LTD, priority 1997, dated 1998).
Read-outs that look alike come from different tables or passages of the source. Marks after values point to notes of the source that are not given here.

Legend:
[1] = tested on: cholesterol-loading rabbits; assay: Antiarteriosclerotic activity in a model for the treatment of arteriosclerosis in cholesterol-loading rabbits; type: in vivo, rabbits (NZW strain male); conditions: for inhibition at 3 mg/kg: Oryctolagus cuniculus
Protocol: As test animals were used a group of 10 rabbits previously fed with a 1% cholesterol-enriched feed to develop atherosclerosis (of 5 months, NZW strain male; available from Kitayama RABES K.K.)
A group of rabbits with arteriosclerosis were fed with a normal feed for rabbits RC-4 (available from Oriental Kobo K-K.) for 3 months and then adopted as a control group, while the compound of the invention was orally administered to a medicated group at 3 mg/kg once per day during this period.
After blood collection, the common carotid artery and the aorta were excised and a certain site thereof was fixed with 10% neutral buffered formalin to prepare a slice of the arterial tissue. Elastin elastic fiber-stained preparations were prepared by Elastic Van Gieson (EVG) staining, fat-stained preparations were prepared by Oil Red O staining and smooth muscle-stained preparations were prepared by anti-human α-actin antibody 1A4 staining.
A degree of intimal elastin fibrogenesis and a degree of medium lipid deposition were assessed in terms of 5 scores on elastin-positve and lipid staining-positive intensities (Grade; 0: No changes, 1: Minimum, 2: Mild, 3: Moderate, and 4: Severe). Areas of the intima (I) and of the medium (M) were measured by means of an image analysis system (Adobe Photoshop, Unitimage for the Apple Macintosh) and a ratio of both values (I/M) was calculated.
An elastin density of the fibrous cap in the intimal surface was calculated in terms of a ratio of the elastin-positive area to a given area of the intimal surface. A ratio of the α-actin-positive area to the intimal surface area at a similar site was defined as a smooth muscle density. Cholesterol was extracted from a portion of the excised aorta with a solution of chloroform : methanol (2:1) and was assayed according to an enzyme method (Cholesterol CII-Test WAKO, Free Cholesterol C-TEST WAKO, Wako Pure Chemical Industries, Ltd.)
(§1) A total blood cholesterol level was measured according to an enzyme method (Autosera CHO-2, Daiichi Kagaku Yakuhin K.K.) using an autoanalyzer (Hitachi 7150 type).

[2] = tested on: hereditary hyperlipemic WHHL rabbits; assay: Antiarteriosclerotic activity in hereditary hyperlipemic WHHL rabbits; type: in vivo; conditions: for Total cholesterol in the arterial wall: 18 months, aorta; for Total cholesterol in the arterial wall / Total blood cholesterol / Intimal cholesterol deposition / Intimal surface elastin/collagen / Intimal collagen / Intimal elastin / Medium Elastin: Mean ± S.E.; for Total blood cholesterol: in feed over 18 months, at autopsy; for Intimal cholesterol deposition: plaque components in aortic arteriosclerosis; for Intimal cholesterol deposition / Intimal collagen / Intimal elastin / Medium Elastin: score, Grade 0-4; for Intimal surface elastin/collagen: ratio
Excerpt: The compound of the invention was continuously administered to rabbits of 2 months with hereditary hyperlipemia (WHHL rabbits, available from Kitayama RABES K.K.) over 18 months and then the rabbits were autopsied.
A portion of the aorta was fixed with 10% neutral buffered formalin and then embedded in paraffin or freeze-embedded to prepare a slice of the arterial tissue. The slice was stained with Hematoxylin and Eosin (HE), Elastic Van Gieson (EVG), Azan-Mallory, and Oil Red O. A positive rate was assessed under microscopic observation in terms of 5 scores (Grade; 0: No changes, 1: Minimum, 2: Mild, 3: Moderate, and 4: Severe) to measure changes in components in the arteriosclerotic lesion. For another portion of the aorta, cholesterol was extracted with a solution of chloroform methanol (2:1) and a total cholesterol level in the arterial wall was assayed according to an enzyme method (Cholesterol CII-Test WAKO, Wako Pure Chemical Industries, Ltd.)
A total blood cholesterol level value at the autopsy was measured according to an enzyme method (Autosera CHO-2, Daiichi Kagaku Yakuhin K.K.) using an autoanalyzer (Hitachi 7150 type).
The drug was mixed into a feed for rabbits RC-4 (Oriental Kobo K.K.) at the concentrations of 0.005% and of 0.05%, and the resulting feed was given daily between 9:00 a.m. and 11:30 a.m. while the feed was restricted to 20 g/kg of body weight.

[3] = tested on: high fat-loading hamsters; assay: Antiarteriosclerotic activity in a model for the treatment of arteriosclerosis in high fat-loading hamsters; type: in vivo, male golden hamsters; conditions: for Degree of lipid deposition on the arterial wall: 10 weeks, aortic arch, Oil Red O; for Degree of lipid deposition on the arterial wall / Total blood cholesterol: Means ± S.E. (n=5); for Total blood cholesterol: in high fat diet for 10 weeks
Excerpt: As test animals were used a group of 5 male golden hamsters of 6 weeks (available from Nihon SLC K.K.) Hamsters were fed with the following high fat diet for 10 weeks to prepare a model for arteriosclerosis.
During this period, the compound of the invention was continuously administered to a medicated group, simultaneously with feeding.
After blood collection, the aortic arch was excised and the adventitia was completely stripped off under microscopic observation. The tissue after fixed with 10% neutral buffered formalin was fat-stained with an Oil Red O solution and enclosed in a glycerol-gelatin solution on a slide glass to prepare a tissue preparation.
An area of the fat-stained site (µm^2) and an area of the artery (mm^2) were measured by means of an image analysis system (Adobe Photoshop, Unitimage for the Apple Macintosh) and a ratio of both values was calculated to determine a degree of lipid deposition on the arterial wall.
as §1
The drug was given in admixture with a high fat diet at the concentrations of 0.003% and of 0.03%, and a dose was calculated from the amount of feed ingested and the body weight.
Composition of a high fat diet: A feed for rats MF (available from Oriental Kobo K.K.) to which 10% coconut oil and 0.05% cholesterol were supplemented. (Results)

[4] = 3 mg/kg orally once per day, 3 months, aorta
[5] = 3 mg/kg, score, Grade 0: No change to 4: Severe, Mean ± S.E.

With `CCCCCCCCCCCCCCSCC(=O)Nc1c(C(C)C)cccc1C(C)C` [Compound of the invention] as the molecule, how does the Total blood cholesterol ([1]; 3 mg/kg orally once per day, 3 months) read?
Its Total blood cholesterol is 113.4 ± 38.6 mg/dL.

And the “Degree of intimal thickening in the common carotid artery” value ([1]; 3 mg/kg orally once per day, 3 months, I/M = Area of the intima/Area of the medium)?
Its value is 0.45±0.18 I/M.

What about the “Cholesteryl ester in the arterial wall” value [1, 4] of the same molecule?
Its value is 219.1 ± 18.4 mg/g.

What about the “Free cholesterol in the arterial wall” value [1, 4] of the same molecule?
Its value is 119.1 ± 12.2 mg/g.

What about the “Total cholesterol in the arterial wall” value [1, 4] of the same molecule?
Its value is 338.2 ± 29.9 mg/g.

What about the “Elastin density in the intimal surface” value ([1]; 3 mg/kg, ratio of elastin-positive area to a given area of the intimal surface) of the same molecule?
Its value is 151±30.

What about the “Density of smooth muscle in the intimal surface” value ([1]; 3 mg/kg, ratio of α-actin-positive area to the intimal surface area) of the same molecule?
Its value is 614±35.

And the “Degree of intimal elastin fibrogenesis” value [1, 5]?
The value was 1.7±0.2.

And the “Degree of medium lipid deposition” value [1, 5]?
The value was 1.2±0.1.

What about the “Degree of intimal elastin fibrogenesis Acceleration (%)” value ([1]; 3 mg/kg, vs. control group) of the same molecule?
Its value is 112.5%.

What about the “Density of smooth muscle in the intimal surface Acceleration (%)” value ([1]; 3 mg/kg, vs. control group) of the same molecule?
The value was 18.5%.

What about the “Elastin density in the intimal surface Acceleration (%)” value ([1]; 3 mg/kg, vs. control group) of the same molecule?
Its value is 37.0%.

What about the inhibition at 3 mg/kg ([1]; 3 mg/kg, vs. control group, read-out: Cholesteryl ester in the arterial wall Inhibition (%)) of the same molecule?
Its inhibition at 3 mg/kg is 24.1%.

And the inhibition at 3 mg/kg ([1]; 3 mg/kg, vs. control group, read-out: Degree of intimal thickening in the common carotid artery Inhibition (%))?
The inhibition at 3 mg/kg was 55.9%.

What about the inhibition at 3 mg/kg ([1]; 3 mg/kg, vs. control group, read-out: Degree of medium lipid deposition Inhibition (%)) of the same molecule?
The inhibition at 3 mg/kg was 47.8%.

And the “regressing a degree of intimal thickening” value ([1]; aortic arch, phase of the complete plaque)?
The value was “no action of regressing a degree of intimal thickening”.

And the “Total cholesterol in the arterial wall” value ([2]; 1 mg/kg)?
The value was 29.3 ± 4.8 mg/g.

And the Total blood cholesterol ([2]; 1 mg/kg)?
The Total blood cholesterol was 462 ± 13 mg/dL.

What about the Intimal cholesterol deposition ([2]; 1 mg/kg) of the same molecule?
The Intimal cholesterol deposition was 2.6±0.2.

What about the Intimal surface elastin/collagen ([2]; 1 mg/kg) of the same molecule?
The Intimal surface elastin/collagen was 1.26±0.24.

And the Intimal collagen ([2]; 1 mg/kg)?
Its Intimal collagen is 3.0±0.2.

What about the Intimal elastin ([2]; 1 mg/kg) of the same molecule?
Its Intimal elastin is 1.5±0.2.

What about the “Medium Elastin” value ([2]; 1 mg/kg) of the same molecule?
The value was 0.93±0.20.

And the “Total cholesterol in the arterial wall” value ([2]; 10 mg/kg)?
The value was 32.2 ± 2.6 mg/g.

What about the Total blood cholesterol ([2]; 10 mg/kg) of the same molecule?
Its Total blood cholesterol is 438 ± 20 mg/dL.

What about the Intimal cholesterol deposition ([2]; 10 mg/kg) of the same molecule?
The Intimal cholesterol deposition was 2.2±0.1.

And the Intimal surface elastin/collagen ([2]; 10 mg/kg)?
The Intimal surface elastin/collagen was 2.01±0.36.

What about the Intimal collagen ([2]; 10 mg/kg) of the same molecule?
The Intimal collagen was 3.0±0.1.

And the Intimal elastin ([2]; 10 mg/kg)?
Its Intimal elastin is 1.8±0.2.

And the “Medium Elastin” value ([2]; 10 mg/kg)?
The value was 1.59±0.09.

And the inhibition at 1 mg/kg ([2]; Oryctolagus cuniculus, 1 mg/kg, vs. control group, read-out: Total cholesterol in the arterial wall Inhibition (%))?
Its inhibition at 1 mg/kg is 26.4%.

What about the inhibition at 10 mg/kg ([2]; Oryctolagus cuniculus, 10 mg/kg, vs. control group, read-out: Total cholesterol in the arterial wall Inhibition (%)) of the same molecule?
The inhibition at 10 mg/kg was 19.1%.

What about the “action on endothelial cells” value ([2]; old WHHL rabbit lesion) of the same molecule?
The value was “compacting endothelial cells”.

What about the “Degree of lipid deposition on the arterial wall” value ([3]; 1.5 mg/kg) of the same molecule?
Its value is 217.5±40.5* µm^2/mm^2.

And the Total blood cholesterol ([3]; 1.5 mg/kg)?
Its Total blood cholesterol is 372.0 ± 35.5 mg/dL.

What about the “Degree of lipid deposition on the arterial wall” value ([3]; 15 mg/kg) of the same molecule?
Its value is 46.2± 8.6** µm^2/mm^2.

What about the Total blood cholesterol ([3]; 15 mg/kg) of the same molecule?
Its Total blood cholesterol is 231.2 ± 4.9 mg/dL.

What about the inhibition at 1.5 mg/kg ([3]; Mesocricetus auratus, 1.5 mg/kg, vs. control group, read-out: Degree of lipid deposition on the arterial wall Inhibition (%)) of the same molecule?
The inhibition at 1.5 mg/kg was 67.3%.

What about the inhibition at 15 mg/kg ([3]; Mesocricetus auratus, 15 mg/kg, vs. control group, read-out: Degree of lipid deposition on the arterial wall Inhibition (%)) of the same molecule?
The inhibition at 15 mg/kg was 93.1%.
